1 substance from US20170218375A1, “MORPHOLINOS, MORPHOLINO UPREGULATING, AND ASSOCIATED METHODS” (University of Utah Research Foundation, priority 2011, published 2017) can be followed below.

The test system of series [1] is suture-induced corneal neovascularization and lymphangiogenesis. Kind of series: Mouse corneal suture model (CD31 and LYVE-1 stained cornea flatmount). The series is classed as in vivo. To be noted: for suppression of suture-induced neovascularization: CD31; for suppression of lymphangiogenesis: LYVE-1. As to the method:
In another aspect, a corneal suture model can be used to evaluate angiogenesis. For the one week subarm, each morpholino or DPBS was injected subconjunctivally one day prior to and four days after suturing; the corneas were harvested at seven days post suturing. For the two week subarm, each morpholino or DPBS was injected subconjunctivally one day prior and four, seven and ten days after suturing; the corneas were harvested at fourteen days. CD31 and LYVE-1 were used as markers of neovascularization and lymphangiogenesis, respectively. FIGS. 10 and 11 representative images of CD31 stained corneas at one week and LYVE-1 stained corneas at two weeks, respectively.
Under anesthesia, 15 μl of moVEGFR2_MOe13 (40 ng/μl), STD_MO (40 ng/μl) or DPBS was injected subconjunctivally into two different places one day prior to the placement of 2 symmetrical 11-0 nylon sutures, followed by re-injection at four days after suture placement. Eyes were harvested 7 days after suture placement. In a second group, 15 μl of moVEGFR2_MOe13 (40 ng/μl), STD_MO (40 ng/μl) or DPBS was injected subconjunctivally into two different places one day prior to the placement of 2 symmetrical 11-0 nylon sutures. Subconjunctival injections were repeated at four, seven and ten days after suture placement. Eyes were harvested 14 days after suture placement. The corneas were fixed in acetone at room temperature for 20 minutes. After 4 washes in PBST (0.1% Tween20/PBS), the corneas were incubated in 3% BSA/PBS at 4° C. for 3 days. To detect CD31 and LYVE1, corneas were incubated in 3% BSA/PBS with FITC-conjugated rat anti-CD31 antibody (553372, 1:500, BD Biosciences, San Jose, Calif.) or rabbit anti-LYVE-1 (ab14917, 1:200, Abcam, Cambridge, Mass.) overnight at 4° C. After 3 washes in PBST, the corneas were incubated in 3% BSA/PBS with Alexa Fluor® 546 conjugated goat anti-rabbit IgG (A11071, 1:2000, Invitrogen Corporation, Carlsbad, Calif.) for one hour at room temperature. After 4 washes in PBST, corneas were mounted on slide glass with Fluoro-gel (Electron Microscopy Sciences, Hatfield, Pa.). Fluorescence was observed by fluorescence microscope (Carl Zeiss MicroImaging, Inc., Thornwood, N.Y.). The data for each suture was calculated by ImageJ separately. Areas where sutures had fallen out were not included in the final calculations.

Series [2] concerns sVEGFR2 mRNA. Nature of the series: RT-PCR of sVEGFR2 mRNA in mouse MS-1 cell line. Format: cell-based. The text has this:
Because VEGFR2_MOe13 decreases mbVEGFR2 and increases sVEGFR2, it is expected that VEGFR2_MOe13 can inhibit angiogenesis and lymphangiogenesis in vivo. To study the effect of VEGFR2_MOe13 in animal models, moVEGFR2_MOe13 was created that targets the exon13-intron13 junction of the mouse VEGFR2 gene. By RT-PCR analysis, it was found moVEGFR2_MOe13 increased sVEGFR2 mRNA and decreased mbVEGFR2 mRNA in the mouse MS-1 cell line (FIG. 7A). […] FIGS. 7(f, g) show the mean area of corneal neovascularization and lymphangiogenesis respectively (n=13-16). Risk factors (p-value) were calculated by two-tail student's t-test (*: p<0.05, **p<0.01, ***p<0.001). Error bar is ±s.e.m.
Each morpholino oligomer was purchased from Gene Tools (Philomath, Oreg.). The sequences of each morpholino oligomer and primers for PCR are listed in supplemental Table. […] The cells were washed three times and fluorescence was detected by a FACScan Analyzer (BD Biosciences, San Jose, Calif.). […]
cDNAs were synthesized from 400 ng total RNA using Omniscript RT kit (Qiagen, Valencia, Calif.) and Oligo-dT primer(dT20) according to the manufacturer's instructions. Real-time PCR was performed using QuantiTect SYBR Green PCR Kit (Qiagen, Valencia, Calif.) and 1 μl of cDNA. […]

{Dendrimer} = dendrimer conjugate (vivo-morpholino)

As for “5′-cacccagggatgcctccatacCTAG-3′ (antisense CACCCAGGGATGCCTCCATACCTAG; all phosphorodiamidate morpholino (PMO), 3' {Dendrimer}) [moVEGFR2_MOe13, morpholino that targets the exon13-intron13 junction of the mouse VEGFR2 gene; in vivo conjugated with a dendrimer (vivo-morpholino)]”, the “suppression of suture-induced neovascularization” value is 52.2% in series [1] (1 week, 15 μl of 40 ng/μl subconjunctivally one day prior to and four days after suturing, compared to DPBS, p<0.001); 29.6% in series [1] (2 weeks, 15 μl of 40 ng/μl subconjunctivally one day prior and four, seven and ten days after suturing, compared to DPBS, p<0.05). For the same substance, the suppression of lymphangiogenesis is 27.8% in series [1] (2 weeks after suture placement, compared to DPBS, p<0.05) and “did not suppress” in series [1] (one week after suture placement). Further, the “sVEGFR2 mRNA by RT-PCR” value in series [2] was “increased”.
